Data: PMC10166615 (Bioorganic & Medicinal Chemistry, 2023)

Biological target: SARS-CoV-2 3CLpro (Severe acute respiratory syndrome coronavirus 2, UniProt P0DTD1)
Test: biochemical
[1] = read-out: SARS-CoV-2 3CLpro Inhibition (%)

Question: With CC(C)(C)[C@H](NC(=O)C(F)(F)F)C(=O)N1C[C@@H]2CCC[C@@H]2[C@H]1C(=O)N[C@H](C#N)C[C@@H]1CCNC1=O [1a, (1S,3aR,6aS)-N-((S)-1-cyano-2-((S)-2-oxopyrrolidin-3-yl)ethyl)-2-((S)-3,3-dimethyl-2-(2,2,2-trifluoroacetamido)butanoyl)octahydrocyclopenta[c]pyrrole-1-carboxamide] as the compound, how does the IC50 read?
Answer: 18.1 ± 2.35 nM

Question: And the inhibition at 0.02 µM [1]?
Answer: 24%

Question: And the inhibition at 0.1 µM [1]?
Answer: 82.5%

Question: And the inhibition at 1 µM [1]?
Answer: 88.9%

Question: And the inhibition at 10 µM [1]?
Answer: 88.3%
